# From patent US11891405B2, “Furo[3,4-b]pyrrole-containing BTK inhibitor” (CHIA TAI TIANQING PHARMACEUTICAL GROUP CO., LTD., priority 2018, dated 2024)
# Key:
# BTK(WT) = BTK(WT) (Homo sapiens, UniProt Q06187); test: Screening for BTK inhibitory activity; assay type: biochemical
# Procedure: 1.1 Screening for BTK Inhibitory Activity
# 350 ng/μL BTK stock solution was diluted with kinase buffer (50 mM HEPES, 10 mM MgCl2, 2 mM DTT, 1 mM EGTA, 0.01% Tween 20), and 6 μL of 1.67× working solution at 0.0334 ng/μL (final concentration: 0.02 ng/μL) was added to each well. Different compounds dissolved in DMSO were added to the wells using a nanoliter pipettor, resulting in the final concentration of 1000 nM to 0.244 nM (4-fold gradient for 7 concentrations in total), and blank control wells (without enzyme) and negative control wells (with enzyme, plus vehicle DMSO) were set, 2 replicate wells for each well. After enzyme was reacted with the compound or vehicle for 30 min, 5×ATP at 100 μM (final concentration: 20 μM) prepared with kinase buffer was mixed with 5×substrate at 0.5 μM (final concentration: 0.1 μM, ULight-poly GT) at a ratio of 1:1, and the mixture was added to each well at 4 μL/well. After being sealed with a film, the plate was incubated at room temperature for 2 h, then 5 μL of 4×EDTA at 40 mM (final concentration: 10 mM) was added to each well. After the plate was incubated for 5 min at room temperature, 5 μL of 4× detection reagent at 8 nM (final concentration: 2 nM, Ab) was added to each well, followed by incubation at room temperature for 1 h. The plate was read using a PE Envision multi-functional microplate reader ([…], emission: 665 nm), and IC50 was calculated by four-parameter fitting.
# TEC = target: T1, TEC (Homo sapiens, UniProt P42680); test: Screening for TEC inhibitory activity; assay type: biochemical
# T1 sequence (P42680 1-631): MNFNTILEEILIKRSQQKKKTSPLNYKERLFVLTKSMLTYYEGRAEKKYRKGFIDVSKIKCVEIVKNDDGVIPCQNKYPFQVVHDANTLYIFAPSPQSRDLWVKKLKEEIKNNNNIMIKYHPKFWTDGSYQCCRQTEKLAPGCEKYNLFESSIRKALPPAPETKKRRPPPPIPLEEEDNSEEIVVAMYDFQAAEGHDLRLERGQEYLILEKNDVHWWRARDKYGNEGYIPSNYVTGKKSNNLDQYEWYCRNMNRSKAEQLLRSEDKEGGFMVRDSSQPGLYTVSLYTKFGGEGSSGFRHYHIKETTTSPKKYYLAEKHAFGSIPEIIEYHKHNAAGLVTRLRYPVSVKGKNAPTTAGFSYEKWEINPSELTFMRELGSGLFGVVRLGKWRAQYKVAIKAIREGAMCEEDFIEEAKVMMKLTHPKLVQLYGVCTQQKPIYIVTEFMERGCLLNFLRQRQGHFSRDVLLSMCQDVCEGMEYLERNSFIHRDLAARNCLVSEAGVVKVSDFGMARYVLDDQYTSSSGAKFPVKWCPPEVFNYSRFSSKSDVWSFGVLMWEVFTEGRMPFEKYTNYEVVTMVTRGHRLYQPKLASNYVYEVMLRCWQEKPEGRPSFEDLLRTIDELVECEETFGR
# Procedure: 1.3 Screening for TEC Inhibitory Activity
# 50 ng/μL TEC stock solution was diluted with kinase buffer (50 mM HEPES, 10 mM MgCl2, 2 mM DTT, 1 mM EGTA, 0.01% Tween 20), and 6 μL of 1.67× working solution at […] (final concentration: 0.008 ng/μL) was added to each well. Different compounds dissolved in DMSO were added to the wells using a nanoliter pipettor, resulting in the final concentration of 1000 nM to 0.24 nM (4-fold gradient for 7 concentrations in total), and blank control wells (without enzyme) and negative control wells (with enzyme, plus vehicle DMSO) were set. After enzyme was reacted with the compound or vehicle for 30 min, 5×ATP at 50 μM (final concentration: 10 μM) prepared with kinase buffer was mixed with 5× substrate at 0.5 μM (final concentration: 0.1 μM, ULight-poly GT) at a ratio of 1:1, and the mixture was added to each well at 4 μL/well. After being sealed with a film, the plate was incubated at room temperature for 2 h, then 5 μL of 4×EDTA at 40 mM (final concentration: 10 mM) was added to each well. After the plate was incubated for 5 min at room temperature, 5 μL of 4× detection reagent at 8 nM (final concentration: 2 nM, Eu-anti-phospho-tyrosine antibody) was added to each well, followed by incubation at room temperature for 1 h. The plate was read using a PE Envision multi-functional microplate reader (excitation: 320 nm, emission: 665 nm), and IC50 was calculated by four-parameter fitting.
# [1] = Mouse liver microsome metabolic stability; assay type: in vitro ADME; conditions: mouse liver microsomes
# Procedure: 3.2 Mouse Liver Microsome Assay
# (§1) 300 μL of final incubation system: 30 μL of mouse liver microsomes (protein concentration: 5 mg/mL, XENOTECH, USA), 30 μL of NADPH (10 mM)+MgCl2 (5 mM), 3 μL of the substrate, i.e., the example compound (dissolved in 50% aqueous acetonitrile solution, 100 μM), and 237 μL of PBS buffer, wherein the proportion of the organic solvent (acetonitrile) was 0.5%. Each tube was added with 270 μL of a mixed solution of substrate and enzyme, and after being pre-incubated at 37° C. for 5 min, added with 30 μL of NADPH+MgCl2. Then 50 μL of the mixture was taken at 0 min, 15 min, 30 min and 60 min, and added with 300 μL of diazepam glacial acetonitrile (20 ng/mL) containing an internal standard to quench the reaction. The reaction mixture was vortexed for 5 min, and centrifuged (13,000 rpm, 4° C.) for 10 min. 100 μL of supernatant was pipetted into a sample vial, from which 1 μL of supernatant was injected and analyzed by LC-MS/MS, and the residual percentage was calculated.
# [2] = Rat liver microsome metabolic stability; assay type: in vitro ADME; conditions: rat liver microsomes
# Procedure: 3.3 Rat Liver Microsome Assay
# as §1, with “rat” for “mouse”, “remaining” for “residual”
# Chain of BTK(WT) (Q06187 whole entry): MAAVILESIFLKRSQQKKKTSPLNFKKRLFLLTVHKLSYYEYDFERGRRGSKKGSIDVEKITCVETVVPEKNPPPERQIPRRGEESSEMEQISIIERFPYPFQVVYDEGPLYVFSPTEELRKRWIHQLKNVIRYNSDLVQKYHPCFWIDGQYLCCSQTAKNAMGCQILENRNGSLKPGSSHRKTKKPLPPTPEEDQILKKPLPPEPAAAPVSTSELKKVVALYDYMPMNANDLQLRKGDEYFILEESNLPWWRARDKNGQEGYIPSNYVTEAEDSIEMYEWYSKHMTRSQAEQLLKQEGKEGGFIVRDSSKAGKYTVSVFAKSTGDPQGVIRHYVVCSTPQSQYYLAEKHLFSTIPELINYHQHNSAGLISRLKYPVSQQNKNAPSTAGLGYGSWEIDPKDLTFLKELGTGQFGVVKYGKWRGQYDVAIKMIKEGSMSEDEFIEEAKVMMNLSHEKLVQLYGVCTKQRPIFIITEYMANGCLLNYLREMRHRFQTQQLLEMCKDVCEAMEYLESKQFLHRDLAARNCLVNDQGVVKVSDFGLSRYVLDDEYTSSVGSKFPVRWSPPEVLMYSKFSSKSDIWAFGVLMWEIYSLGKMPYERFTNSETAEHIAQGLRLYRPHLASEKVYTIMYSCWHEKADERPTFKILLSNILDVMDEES
SMILES,IC50 (BTK(WT)),IC50 (TEC),Mouse (MLM) Remaining % (T = 60 min) [1],Rat (RLM) Remaining % (T = 60 min) [2]
"CC#CC(=O)N1[C@@H]2COC[C@@H]2C[C@H]1c1nc(-c2ccc(C(=O)Nc3ccccn3)cc2)c2c(N)nccn12 [Compound I-1, 4-(8-amino-3-((2S,3aR,6aS)-1-(but-2-ynoyl)hexahydro-1H-furo[3,4-b]pyrrol-2-yl)imidazo [1,5-a]pyrazin-1-yl)-N-(pyridin-2-yl)benzamide]",52.1 nM,155 nM,90%,30%
"C=CC(=O)N1[C@@H]2COC[C@@H]2C[C@H]1c1nc(-c2ccc(C(=O)Nc3ccccn3)cc2)c2c(N)nccn12 [Compound I-3, 4-(3-((2S,3AR,6AS)-1-ACRYLOYLHEXAHYDRO-1H-FURO[3,4-B]PYRROL-2-YL)-8-AMINOIMIDAZO [1,5-A]PYRAZIN-1-YL)-N-(PYRIDIN-2-YL)BENZAMIDE]",21.4 nM,111 nM,89%,42%
"CC#CC(=O)N1[C@@H]2COC[C@@H]2C[C@H]1c1nc(-c2ccc(C(=O)Nc3cc(C(F)(F)F)ccn3)cc2F)c2c(N)nccn12 [Compound I-4, 4-(8-AMINO-3-((2S,3AR,6AS)-1-(BUT-2-YNOYL)HEXAHYDRO-1H-FURO[3,4-B]PYRROL-2-YL)IMIDAZO[1,5-A]PYRAZIN-1-YL)-3-FLUORO-N-(4-(TRIFLUOROMETHYL)PYRIDIN-2-YL)BENZAMIDE]",12.4 nM,25 nM,32%,26%
"Nc1nccn2c([C@@H]3C[C@H]4COC[C@H]4N3C(=O)C3CC3)nc(-c3ccc(C(=O)Nc4cc(C(F)(F)F)ccn4)cc3F)c12 [Compound I-7, 4-(8-AMINO-3-((2S,3AR,6AS)-1-(CYCLOPROPANECARBONYL)HEXAHYDRO-1H-FURO[3,4-B]PYRROL-2-YL)IMIDAZO[1,5-A]PYRAZIN-1-YL)-3-FLUORO-N-(4-(TRIFLUOROMETHYL)PYRIDIN-2-YL)BENZAMIDE]",9.7 nM,–,55.7%,33.9%
